Data from PMC7757739 (Chemical research in toxicology, 2019).
pEC50: −log10 of the molar value. Values joined by “and” are separate entries in the source; they are usually repeats but may differ in a detail not shown here. Identical values can stand only once. Like-named read-outs stand apart in the source and are kept apart here.

Key:
AhR [1] = biological target: AhR (Homo sapiens, UniProt P35869); assay type: cell-based; settings: HG2L7.5c1 cells, 6h, Figure 4
human AhR = biological target: T1, human AhR (Homo sapiens, UniProt P35869); assay: AhR-responsive luciferase reporter gene induction in recombinant human hepatoma; settings: for increased potency compared to tryptanthrin (3) / potency relative to TCDD, in words: 6h; for AhR-dependent reporter gene activity (efficacy), in words: Figure 3
T1 sequence (P35869 11-848): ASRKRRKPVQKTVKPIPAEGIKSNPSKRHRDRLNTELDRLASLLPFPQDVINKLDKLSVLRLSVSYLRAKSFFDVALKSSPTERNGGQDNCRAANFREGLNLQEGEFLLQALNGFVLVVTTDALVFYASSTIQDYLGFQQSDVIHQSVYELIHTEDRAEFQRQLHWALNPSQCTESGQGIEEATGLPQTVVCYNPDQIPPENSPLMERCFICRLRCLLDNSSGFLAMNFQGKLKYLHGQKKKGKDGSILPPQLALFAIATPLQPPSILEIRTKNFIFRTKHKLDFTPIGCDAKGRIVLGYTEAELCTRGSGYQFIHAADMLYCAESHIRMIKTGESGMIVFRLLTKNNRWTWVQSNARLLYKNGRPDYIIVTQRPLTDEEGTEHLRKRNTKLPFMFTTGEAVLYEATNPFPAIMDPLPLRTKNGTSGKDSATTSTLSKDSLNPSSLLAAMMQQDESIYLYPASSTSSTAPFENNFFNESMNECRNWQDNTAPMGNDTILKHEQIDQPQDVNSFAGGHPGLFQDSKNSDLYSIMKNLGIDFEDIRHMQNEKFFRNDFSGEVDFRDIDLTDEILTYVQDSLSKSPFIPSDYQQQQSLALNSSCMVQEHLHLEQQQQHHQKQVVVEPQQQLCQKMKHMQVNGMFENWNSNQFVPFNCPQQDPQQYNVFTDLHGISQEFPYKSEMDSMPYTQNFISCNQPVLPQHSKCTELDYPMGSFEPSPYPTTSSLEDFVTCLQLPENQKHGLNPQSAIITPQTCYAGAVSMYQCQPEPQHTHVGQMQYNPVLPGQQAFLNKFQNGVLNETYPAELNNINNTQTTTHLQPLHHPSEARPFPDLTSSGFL

mouse AhR [2] = biological target: T2, mouse AhR (Mus musculus, UniProt P30561); settings: mouse H1L7.5c3 cells
AhR [3] = settings: mice or mouse cells; ref [34], [35], [76]; cited from earlier work
mouse AhR [4] = biological target: T2, mouse AhR; assay: cell-based
AhR [5] = settings: ref [37]; cited from earlier work

T2 sequence (P30561 10-805 limits assumed): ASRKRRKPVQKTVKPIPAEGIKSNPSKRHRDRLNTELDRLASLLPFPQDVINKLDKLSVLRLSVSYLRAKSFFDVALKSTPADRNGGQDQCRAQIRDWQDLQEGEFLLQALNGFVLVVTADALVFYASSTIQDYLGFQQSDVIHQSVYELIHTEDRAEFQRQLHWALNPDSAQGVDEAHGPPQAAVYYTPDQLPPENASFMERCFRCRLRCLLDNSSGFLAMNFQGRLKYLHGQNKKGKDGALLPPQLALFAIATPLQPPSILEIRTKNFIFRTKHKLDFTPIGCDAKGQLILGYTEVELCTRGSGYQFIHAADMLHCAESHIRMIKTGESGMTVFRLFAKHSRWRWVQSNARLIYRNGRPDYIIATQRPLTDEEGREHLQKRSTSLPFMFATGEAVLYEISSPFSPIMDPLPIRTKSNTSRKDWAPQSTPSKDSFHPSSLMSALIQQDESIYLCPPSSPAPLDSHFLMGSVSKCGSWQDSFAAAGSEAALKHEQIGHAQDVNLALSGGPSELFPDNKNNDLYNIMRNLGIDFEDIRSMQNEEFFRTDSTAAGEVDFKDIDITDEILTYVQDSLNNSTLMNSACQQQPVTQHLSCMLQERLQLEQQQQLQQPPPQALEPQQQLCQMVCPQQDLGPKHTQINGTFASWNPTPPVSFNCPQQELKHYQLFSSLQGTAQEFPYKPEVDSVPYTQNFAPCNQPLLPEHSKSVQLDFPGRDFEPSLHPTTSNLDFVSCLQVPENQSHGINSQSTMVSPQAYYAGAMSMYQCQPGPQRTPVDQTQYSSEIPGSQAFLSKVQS
T2 sequence (P11499 whole entry partner): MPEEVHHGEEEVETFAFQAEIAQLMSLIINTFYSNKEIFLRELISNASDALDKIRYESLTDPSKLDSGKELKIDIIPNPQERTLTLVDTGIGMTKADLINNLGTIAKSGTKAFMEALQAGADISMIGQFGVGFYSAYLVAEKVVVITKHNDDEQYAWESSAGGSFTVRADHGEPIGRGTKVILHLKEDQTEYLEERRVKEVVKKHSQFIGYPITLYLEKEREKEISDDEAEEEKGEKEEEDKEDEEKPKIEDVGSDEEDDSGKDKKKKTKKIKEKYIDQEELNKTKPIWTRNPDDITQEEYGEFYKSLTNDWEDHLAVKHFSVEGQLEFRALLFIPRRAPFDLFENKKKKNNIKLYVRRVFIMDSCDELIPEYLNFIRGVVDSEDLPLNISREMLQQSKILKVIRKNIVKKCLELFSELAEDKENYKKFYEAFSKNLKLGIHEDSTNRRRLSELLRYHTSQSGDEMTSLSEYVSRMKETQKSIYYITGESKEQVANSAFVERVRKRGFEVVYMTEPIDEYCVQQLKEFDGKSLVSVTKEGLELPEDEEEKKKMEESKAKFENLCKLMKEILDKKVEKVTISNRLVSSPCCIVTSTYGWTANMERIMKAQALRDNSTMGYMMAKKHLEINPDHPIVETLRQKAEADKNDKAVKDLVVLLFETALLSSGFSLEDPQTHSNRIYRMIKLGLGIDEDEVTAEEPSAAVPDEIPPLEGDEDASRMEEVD
T2 sequence (O08915 whole entry partner): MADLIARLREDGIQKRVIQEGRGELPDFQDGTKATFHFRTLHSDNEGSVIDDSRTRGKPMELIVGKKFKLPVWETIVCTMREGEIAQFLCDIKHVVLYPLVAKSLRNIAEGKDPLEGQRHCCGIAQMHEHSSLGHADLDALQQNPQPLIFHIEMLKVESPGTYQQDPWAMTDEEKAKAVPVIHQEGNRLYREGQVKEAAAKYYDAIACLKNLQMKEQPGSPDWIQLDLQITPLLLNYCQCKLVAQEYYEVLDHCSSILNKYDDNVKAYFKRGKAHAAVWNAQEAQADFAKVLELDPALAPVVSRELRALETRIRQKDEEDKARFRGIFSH

Structure (SMILES): CC(C)n1cnc2c(NCCc3ccc(O)cc3)nc(-c3csc4ccccc34)nc21 [StemRegenin1]
- inhibition of TCDD-dependent induction of luciferase reporter gene expression (AhR [1]): inhibit

Structure (SMILES): O=C1c2ccccc2-n2c1nc1cc(Br)ccc1c2=O [3h, 3-bromotryptanthrin]
- times more potent than TCDD (human AhR; human HG2L7.5c1 cells): 10 fold
- increased potency compared to tryptanthrin (3) (human AhR; human HG2L7.5c1 cells): 3,000 fold
- AhR-dependent reporter gene activity (efficacy), in words (human AhR; human cells): comparable to that produced by a maximally inducing concentration of TCDD
- times less potent than TCDD (mouse AhR [2]): 10,000 fold
- times less potent than TCDD (mouse AhR [2]; listed as 3-bromotryptanthrin): > 10,000 fold

Structure (SMILES): O=C1c2ccc(Br)cc2-n2c1nc1cc(Br)ccc1c2=O [3f, 3,9-dibromotryptanthrin]
- increased potency compared to tryptanthrin (3) (human AhR; human HG2L7.5c1 cells): 350 fold
- potency relative to TCDD, in words (human AhR; human HG2L7.5c1 cells): comparable to the potency of TCDD
- potency relative to TCDD, in words (human AhR; human HG2L7.5c1 cells, listed as 3,9-dibromotryptanthrin): equipotent
- pEC50 (human AhR; human HG2L7.5c1 cells, evaluated at 6h): 9.30
- AhR-dependent reporter gene activity (efficacy), in words (human AhR; human cells): induced maximal AhR-dependent reporter gene activity
- times less potent than TCDD (mouse AhR [2]): 4,000 fold and ~ 4,000 fold

Structure (SMILES): O=C1Nc2ccccc2/C1=C1/Nc2ccccc2C1=O [compound 2, Indirubin]
- less potent than TCDD (AhR [3]): ~ 100

Structure (SMILES): O=C1Nc2ccc(Cl)cc2C1=C1Nc2ccc(Cl)cc2C1=O [2b, 5,5’-dichloroindirubin]
- potency relative to TCDD, in words (human AhR; human HG2L7.5c1 cells): comparable to or greater than TCDD

Structure (SMILES): O=C1c2ccccc2-n2c1nc1ccccc1c2=O [compound 3, Tryptanthrin]
- pEC50 (human AhR): 6.77
- pEC50 (mouse AhR [4]): 6.09

Structure (SMILES): O=C(O)Cc1ccc2c(c1)-n1c(nc3cc(CC(=O)O)ccc3c1=O)C2=O [3g, 3,9-dicarboxymethylotryptanthrin]
- AhR-dependent reporter gene activity (efficacy), in words (human AhR; human cells): completely inactive

Structure (SMILES): Clc1cc2c(cc1Cl)Oc1cc(Cl)c(Cl)cc1O2 [TCDD, 2,3,7,8-tetrachlorodibenzo-p-dioxin, reference compound]
- pEC50 (human AhR; EC50 for gene induction at 24h of incubation, human cells, 24h incubation): 9.52
- pEC50 (mouse AhR [4]): 10.00

Structure (SMILES): Cc1ccccc1N=Nc1ccc(NC(=O)c2ccnn2C)c(C)c1 [CH223191]
- inhibition of TCDD-dependent induction of luciferase reporter gene expression (AhR [1]): inhibit
- effect of antagonist on AhR activation by indirubin (AhR [5]): little effect
- effect of antagonist on ability of TCDD to bind to and activate the AhR (AhR [5]): effectively inhibit

Structure (SMILES): O=C1Nc2cc(Br)ccc2/C1=C1/Nc2cc(Br)ccc2C1=O [2f, 6,6’-dibromoindirubin]
- potency relative to TCDD, in words (human AhR; human HG2L7.5c1 cells): comparable to or greater than TCDD
